From ChEMBL document CHEMBL5385908, “Screening Ultra-Large Encoded Compound Libraries Leads to Novel Protein-Ligand Interactions and High Selectivity” (J Med Chem, 2024)
Each block holds one molecule with its values, some of them ahead of it.

What was measured:
[1] = target: T1, Proteinase-activated receptor 2 (Homo sapiens, UniProt P55085); experiment: Binding affinity to PAR2 (unknown origin) assessed as inhibition constant
T1 sequence (P55085 whole entry): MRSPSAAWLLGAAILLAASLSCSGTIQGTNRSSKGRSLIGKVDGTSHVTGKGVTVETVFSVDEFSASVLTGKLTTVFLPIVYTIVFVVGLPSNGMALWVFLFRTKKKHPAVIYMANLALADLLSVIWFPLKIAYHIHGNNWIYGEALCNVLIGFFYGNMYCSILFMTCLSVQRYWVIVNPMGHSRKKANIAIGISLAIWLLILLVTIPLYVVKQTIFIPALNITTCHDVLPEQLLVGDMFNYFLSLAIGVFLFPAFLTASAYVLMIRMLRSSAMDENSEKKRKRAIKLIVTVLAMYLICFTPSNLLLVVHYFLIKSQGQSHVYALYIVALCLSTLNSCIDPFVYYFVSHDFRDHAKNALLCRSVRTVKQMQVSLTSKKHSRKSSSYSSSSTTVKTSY

[2] = target: T1, Proteinase-activated receptor 2; experiment: Antagonist activity at PAR2 (unknown origin)
[3] = target: T2, ATPase family AAA domain-containing protein 2 (Homo sapiens, UniProt Q6PL18); experiment: Inhibition of N-terminal Hexahistidine-GST-tagged human ATAD2 bromodomain expressed in Escherichia coli BL21 (DE3) Rosetta cells incubated for 1 hr by FRET analysis
T2 sequence (Q6PL18 whole entry): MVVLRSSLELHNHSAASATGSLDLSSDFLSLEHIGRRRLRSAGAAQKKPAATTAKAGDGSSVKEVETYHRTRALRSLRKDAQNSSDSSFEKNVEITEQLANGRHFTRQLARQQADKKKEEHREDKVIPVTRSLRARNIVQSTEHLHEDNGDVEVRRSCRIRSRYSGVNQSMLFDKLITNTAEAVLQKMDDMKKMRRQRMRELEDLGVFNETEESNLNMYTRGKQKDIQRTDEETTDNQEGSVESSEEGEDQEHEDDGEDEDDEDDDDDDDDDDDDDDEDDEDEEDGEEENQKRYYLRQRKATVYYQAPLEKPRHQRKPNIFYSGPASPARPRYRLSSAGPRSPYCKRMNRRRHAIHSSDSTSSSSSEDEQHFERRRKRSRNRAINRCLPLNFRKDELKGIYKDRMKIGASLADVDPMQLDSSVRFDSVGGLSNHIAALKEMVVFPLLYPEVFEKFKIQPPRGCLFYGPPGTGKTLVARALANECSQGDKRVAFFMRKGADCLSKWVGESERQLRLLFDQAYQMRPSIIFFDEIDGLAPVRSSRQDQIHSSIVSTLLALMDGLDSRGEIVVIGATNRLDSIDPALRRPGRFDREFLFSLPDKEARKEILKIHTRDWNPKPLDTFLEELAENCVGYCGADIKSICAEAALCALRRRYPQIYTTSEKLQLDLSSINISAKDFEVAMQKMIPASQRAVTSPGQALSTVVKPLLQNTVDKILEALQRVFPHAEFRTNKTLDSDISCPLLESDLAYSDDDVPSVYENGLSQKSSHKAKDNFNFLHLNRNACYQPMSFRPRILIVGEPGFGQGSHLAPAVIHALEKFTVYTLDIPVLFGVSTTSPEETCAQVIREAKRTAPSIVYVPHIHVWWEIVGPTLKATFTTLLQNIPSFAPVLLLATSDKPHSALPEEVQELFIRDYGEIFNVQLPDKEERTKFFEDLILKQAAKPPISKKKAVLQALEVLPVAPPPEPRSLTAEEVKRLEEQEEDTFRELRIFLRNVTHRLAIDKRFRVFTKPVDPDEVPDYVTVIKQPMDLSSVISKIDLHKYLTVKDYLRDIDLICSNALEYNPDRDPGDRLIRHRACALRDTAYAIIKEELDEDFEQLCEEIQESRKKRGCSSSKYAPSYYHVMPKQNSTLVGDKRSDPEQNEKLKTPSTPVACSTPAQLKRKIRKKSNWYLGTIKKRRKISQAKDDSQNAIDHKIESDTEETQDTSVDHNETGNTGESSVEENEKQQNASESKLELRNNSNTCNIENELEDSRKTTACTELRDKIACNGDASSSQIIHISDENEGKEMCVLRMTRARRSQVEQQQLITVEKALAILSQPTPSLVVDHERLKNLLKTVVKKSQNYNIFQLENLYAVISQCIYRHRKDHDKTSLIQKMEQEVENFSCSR

[4] = target: T3, Tyrosine-protein kinase receptor UFO (Homo sapiens, UniProt P30530); experiment: Inhibition of AXL (unknown origin) by FRET assay
T3 sequence (P30530 whole entry): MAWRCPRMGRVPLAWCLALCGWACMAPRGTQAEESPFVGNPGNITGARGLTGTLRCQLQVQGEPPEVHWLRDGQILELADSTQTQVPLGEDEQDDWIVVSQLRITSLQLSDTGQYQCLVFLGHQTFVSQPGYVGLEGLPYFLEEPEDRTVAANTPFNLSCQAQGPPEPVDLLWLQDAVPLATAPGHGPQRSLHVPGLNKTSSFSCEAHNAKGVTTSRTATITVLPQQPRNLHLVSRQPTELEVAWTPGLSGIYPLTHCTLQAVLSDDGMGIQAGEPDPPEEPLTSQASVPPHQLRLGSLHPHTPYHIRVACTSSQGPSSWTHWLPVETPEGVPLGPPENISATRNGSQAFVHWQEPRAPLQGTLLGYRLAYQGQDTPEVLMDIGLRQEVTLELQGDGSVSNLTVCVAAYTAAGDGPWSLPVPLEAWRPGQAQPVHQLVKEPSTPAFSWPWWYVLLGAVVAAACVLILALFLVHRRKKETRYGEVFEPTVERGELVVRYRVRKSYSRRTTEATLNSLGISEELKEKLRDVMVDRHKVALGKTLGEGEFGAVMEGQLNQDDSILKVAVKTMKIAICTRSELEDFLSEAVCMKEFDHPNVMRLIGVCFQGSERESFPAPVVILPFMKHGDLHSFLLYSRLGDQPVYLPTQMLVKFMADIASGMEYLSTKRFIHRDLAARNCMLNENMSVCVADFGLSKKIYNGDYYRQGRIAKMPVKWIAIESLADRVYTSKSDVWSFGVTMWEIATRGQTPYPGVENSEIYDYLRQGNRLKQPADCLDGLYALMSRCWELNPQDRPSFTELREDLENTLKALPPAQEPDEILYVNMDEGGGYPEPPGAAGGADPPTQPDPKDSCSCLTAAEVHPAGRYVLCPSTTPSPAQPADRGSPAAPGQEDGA

[5] = target: T4, Receptor-type tyrosine-protein kinase FLT3 (Homo sapiens, UniProt P36888); experiment: Inhibition of wild type FLT3 (unknown origin)
T4 sequence (P36888 whole entry): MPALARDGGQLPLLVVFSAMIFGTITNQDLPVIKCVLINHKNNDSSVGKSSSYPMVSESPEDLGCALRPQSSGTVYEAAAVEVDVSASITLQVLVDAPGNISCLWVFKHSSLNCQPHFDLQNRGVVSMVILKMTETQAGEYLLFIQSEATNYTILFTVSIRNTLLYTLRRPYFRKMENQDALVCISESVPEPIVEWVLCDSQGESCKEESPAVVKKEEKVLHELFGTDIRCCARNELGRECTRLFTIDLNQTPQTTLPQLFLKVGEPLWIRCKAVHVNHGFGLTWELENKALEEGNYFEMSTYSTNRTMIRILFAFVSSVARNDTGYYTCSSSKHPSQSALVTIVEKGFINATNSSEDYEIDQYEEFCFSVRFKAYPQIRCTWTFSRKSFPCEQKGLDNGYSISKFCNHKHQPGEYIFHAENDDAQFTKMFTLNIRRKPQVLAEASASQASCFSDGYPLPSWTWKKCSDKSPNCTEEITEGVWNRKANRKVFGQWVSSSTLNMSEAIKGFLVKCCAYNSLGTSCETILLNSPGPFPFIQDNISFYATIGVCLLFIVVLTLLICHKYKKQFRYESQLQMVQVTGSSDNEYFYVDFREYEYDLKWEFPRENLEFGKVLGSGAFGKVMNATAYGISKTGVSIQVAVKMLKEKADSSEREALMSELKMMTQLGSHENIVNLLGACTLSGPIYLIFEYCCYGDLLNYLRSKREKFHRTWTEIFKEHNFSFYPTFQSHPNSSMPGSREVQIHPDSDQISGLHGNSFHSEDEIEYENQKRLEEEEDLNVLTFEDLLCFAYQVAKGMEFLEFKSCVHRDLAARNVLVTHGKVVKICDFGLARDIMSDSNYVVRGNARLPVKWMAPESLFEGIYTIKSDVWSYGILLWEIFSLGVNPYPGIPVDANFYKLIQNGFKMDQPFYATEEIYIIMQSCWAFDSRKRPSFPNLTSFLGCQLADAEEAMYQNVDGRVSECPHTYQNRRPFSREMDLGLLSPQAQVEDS

[6] = target: T5, Tyrosine-protein kinase Mer (Homo sapiens, UniProt Q12866); experiment: Inhibition of N-terminal His6-tagged human MerTk
T5 sequence (Q12866 whole entry): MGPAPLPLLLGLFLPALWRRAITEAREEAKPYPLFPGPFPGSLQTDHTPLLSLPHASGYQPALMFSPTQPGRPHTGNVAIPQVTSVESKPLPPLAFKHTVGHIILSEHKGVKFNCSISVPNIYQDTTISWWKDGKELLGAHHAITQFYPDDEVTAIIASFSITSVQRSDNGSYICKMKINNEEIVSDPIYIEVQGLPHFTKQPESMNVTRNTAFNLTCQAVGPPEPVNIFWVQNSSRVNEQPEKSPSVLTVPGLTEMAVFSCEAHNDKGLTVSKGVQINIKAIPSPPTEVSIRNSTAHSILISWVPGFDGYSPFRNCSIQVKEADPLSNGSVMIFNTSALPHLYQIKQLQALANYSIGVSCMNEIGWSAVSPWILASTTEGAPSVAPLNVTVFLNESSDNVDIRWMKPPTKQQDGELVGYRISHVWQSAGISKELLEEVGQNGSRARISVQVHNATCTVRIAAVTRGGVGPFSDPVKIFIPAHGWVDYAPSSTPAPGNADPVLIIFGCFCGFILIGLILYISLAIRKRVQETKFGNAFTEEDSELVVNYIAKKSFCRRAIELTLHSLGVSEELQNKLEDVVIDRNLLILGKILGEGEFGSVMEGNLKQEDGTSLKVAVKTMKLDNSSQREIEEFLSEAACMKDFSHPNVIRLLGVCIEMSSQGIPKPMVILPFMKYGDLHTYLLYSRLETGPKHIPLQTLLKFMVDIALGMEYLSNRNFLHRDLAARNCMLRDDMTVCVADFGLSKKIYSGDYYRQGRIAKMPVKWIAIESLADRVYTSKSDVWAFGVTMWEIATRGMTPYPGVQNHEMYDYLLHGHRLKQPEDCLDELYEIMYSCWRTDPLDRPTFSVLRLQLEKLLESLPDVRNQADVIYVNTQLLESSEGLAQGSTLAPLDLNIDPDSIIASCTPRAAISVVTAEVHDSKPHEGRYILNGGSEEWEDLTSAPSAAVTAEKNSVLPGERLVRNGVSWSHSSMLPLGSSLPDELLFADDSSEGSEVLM

[7] = target: T6, Protein phosphatase 1D (Homo sapiens, UniProt O15297); experiment: Inhibition of N-terminal FLAG-His8-tagged human Wip1 (2 to 420 residues) expressed in bac-to-bac baculovirus expression system infected Sf9 cells
T6 sequence (O15297 whole entry): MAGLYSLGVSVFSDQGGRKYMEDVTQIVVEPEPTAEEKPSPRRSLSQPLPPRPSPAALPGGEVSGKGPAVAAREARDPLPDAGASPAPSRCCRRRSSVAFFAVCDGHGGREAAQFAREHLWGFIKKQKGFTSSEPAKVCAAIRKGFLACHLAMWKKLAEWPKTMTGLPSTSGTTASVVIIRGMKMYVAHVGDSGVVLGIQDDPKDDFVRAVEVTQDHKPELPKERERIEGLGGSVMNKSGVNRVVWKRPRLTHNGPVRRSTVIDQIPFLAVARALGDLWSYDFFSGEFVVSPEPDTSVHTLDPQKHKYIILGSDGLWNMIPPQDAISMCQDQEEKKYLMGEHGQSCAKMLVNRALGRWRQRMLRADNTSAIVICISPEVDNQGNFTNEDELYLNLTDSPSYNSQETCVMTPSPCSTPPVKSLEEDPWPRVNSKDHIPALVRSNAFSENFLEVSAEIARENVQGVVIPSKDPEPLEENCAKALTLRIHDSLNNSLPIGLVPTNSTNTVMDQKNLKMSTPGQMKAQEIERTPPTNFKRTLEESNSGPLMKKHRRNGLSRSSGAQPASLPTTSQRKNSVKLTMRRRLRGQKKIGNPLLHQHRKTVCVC

[8] = target: T7, Protein-arginine deiminase type-4 (Homo sapiens, UniProt Q9UM07); experiment: Inhibition of N-terminal GST-tagged PAD4 (unknown origin) expressed in Escherichia coli incubated for 1 hr by spectrophotometric method
T7 sequence (Q9UM07 whole entry): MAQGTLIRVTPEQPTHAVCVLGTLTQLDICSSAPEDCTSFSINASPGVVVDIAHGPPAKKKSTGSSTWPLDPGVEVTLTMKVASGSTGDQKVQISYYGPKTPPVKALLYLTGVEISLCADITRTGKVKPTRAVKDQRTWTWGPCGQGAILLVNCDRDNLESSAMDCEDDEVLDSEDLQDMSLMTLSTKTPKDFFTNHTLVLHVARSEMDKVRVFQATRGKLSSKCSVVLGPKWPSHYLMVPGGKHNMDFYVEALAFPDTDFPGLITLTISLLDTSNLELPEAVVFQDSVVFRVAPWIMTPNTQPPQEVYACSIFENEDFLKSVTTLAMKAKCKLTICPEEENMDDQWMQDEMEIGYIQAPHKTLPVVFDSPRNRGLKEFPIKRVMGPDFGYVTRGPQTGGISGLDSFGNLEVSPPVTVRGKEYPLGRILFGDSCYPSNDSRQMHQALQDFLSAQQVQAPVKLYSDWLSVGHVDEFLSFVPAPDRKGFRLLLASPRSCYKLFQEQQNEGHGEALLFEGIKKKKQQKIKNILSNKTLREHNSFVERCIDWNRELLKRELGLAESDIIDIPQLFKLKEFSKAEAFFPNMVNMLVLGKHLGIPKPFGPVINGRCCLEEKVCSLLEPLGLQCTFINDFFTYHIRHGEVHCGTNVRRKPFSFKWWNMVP

[9] = target: T7, Protein-arginine deiminase type-4; experiment: Inhibition of N-terminal GST-tagged PAD4 (unknown origin) expressed in Escherichia coli BL21 (DE3) measured after 1 hr by colorimetric assay

SMILES: NCCCC[C@H](NC(=O)CNC(=O)Nc1ccc2c(c1)c(CN1CCCC1)cn2Cc1c(Cl)cccc1Cl)C(=O)N[C@@H](Cc1ccccc1)C(=O)NC(c1ccccc1)c1ccccc1
Ki [1]: 0.67 µM

SMILES: C[C@@H](c1ccccc1)n1c(-c2cc3c(cc2Br)OCO3)nc2cc(C(=O)Nc3ccccc3)ccc21
IC50 [2]: 0.09 µM

SMILES: CNC(=O)C[C@@H](NC(=O)[C@@H](Cc1ccccc1)NC(=O)c1c(C)noc1-c1snnc1C)c1ccc(C(F)(F)F)cc1
IC50 [4]: 0.016 µM | IC50 [5]: > 100 µM | IC50 [6]: 0.005 µM

SMILES: CN(Cc1ccc2nccn2c1)c1ccc(-c2ccc(-c3ccccc3Cl)cc2)o1
IC50 [4]: 0.4 µM | IC50 [5]: 15.8 µM | IC50 [6]: 0.005 µM

Next, values leading:

IC50 [2]: 0.023 µM
SMILES: C[C@@H](C1CCCCC1)n1c(-c2cc3c(cc2Br)OCO3)nc2cc(C(=O)Nc3ccc(C#N)cc3)ccc21

IC50 [3]: 0.022 µM
SMILES: COc1cc(Cl)c(C(=O)N[C@@H](CN[C@H]2CC[C@@H](N)CC2)Cc2ccc(C#N)cc2)cc1-c1ccc(CN[C@H](C)c2ccc(C)cc2)o1

IC50 [3]: 0.022 µM
SMILES: CNC(=O)[C@@H](Cc1ccc([N+](=O)[O-])cc1)NC(=O)c1cc(-c2ccc(CN[C@H](C)c3ccc(C)cc3)o2)ccc1Cl

IC50 [7]: 0.013 µM
SMILES: COCCNC(=O)[C@H](CC1CCCCC1)NC(=O)c1ccc(CNc2cccc(Cl)c2)s1

IC50 [8]: 3.2 µM
SMILES: Cn1c(-c2cc3cc(C(=O)N4CCCC(N)C4)ccc3n2N)cc2ccccc21 (stereo not given)

IC50 [9]: 0.2 µM | IC50 [8]: 0.2 µM
SMILES: COc1cc(C(=O)N2CCC[C@@H](N)C2)cc2cc(-c3cc4cccnc4n3C)n(N)c12
